Measured values as given in patent US9655982B2, “Formation and uses of europium complexes” (Wayne State University, priority 2010, dated 2017).
“And” between values parts separate entries of the source, which are not always exact repeats. Identical values can stand only once. “Also recorded” adds a separate entry of the source.

Test: Cyclic voltammetry: anodic peak potentials of aqueous Eu(II) cryptates vs ferrocene/ferrocenium (oxidative stability)
Format: physicochemical
Conditions: for Anodic peak potentials (Epa) with respect to ferrocene/ferrocenium (Fc/Fc+): aqueous MOPS 0.01 M pH 7.5, Et4NClO4 0.05 M, Ar, ambient temperature, scan rate 150 mV/s, mean ± standard error; for Increase in oxidative stability of Eu(II) compared to cryptand 3: difference in anodic peak potential, Eu(II) complex of the cryptand
Source text: To synthesize the diverse set of cryptands 2 and 4-6, a three-step procedure was devised that involved common intermediates 7, 9, and 11 (Scheme 1). Briefly, the synthesis involved the conversion of the appropriate ethylenediols or catechols to the corresponding ditosylates (7, 9, and 11) followed by ring closure with 1,4,10,13-tetraoxa-7,16-diazacyclooctadecane, 2,2′-(ethylenedioxy)bis(ethylamine) or 1,4,10,13-tetrathia-7,16-diazacyclooctadecane.
To synthesize the diverse set of cryptands 1-6, a three-step procedure was devised that involved common intermediates 7, 9, and 11 (Scheme 1). Briefly, the synthesis involved the conversion of the appropriate ethylenediols or catechols to the corresponding ditosylates (7, 9, and 11) followed by ring closure with 1,4,10,13-tetraoxa-7,16-diazacyclooctadecane, 2,2′-(ethylenedioxy)bis(ethylamine), or 1,4,10,13-tetrathia-7,16-diazacyclooctadecane. […] The resulting solution was placed in a standard three-electrode cell (glassy-carbon working electrode, Pt-wire auxiliary electrode, and Ag/AgCl (1.0 M KCl) reference electrode). The potential at the carbon electrode was held at −0.8 V (vs Ag/AgCl) while stirring to produce Eu^II in situ for metalation.
^1H NMR spectra were obtained using a Varian Unity 300 (300 MHz) spectrometer and a Mercury 400 (400 MHz) spectrometer, ^13C NMR spectra were obtained using a Varian Unity 300 (75 MHz) spectrometer and a Mercury 400 (101 MHz) spectrometer. ^19F NMR spectra were obtained using Varian Unity 300 (282 MHz) spectrometer. […] NMR data are assumed to be first order, and the apparent multiplicity is reported as “s”=singlet, “d”=doublet, “dd”=doublet of doublets, “t”=triplet, “td”=triplet of doublets, “q”=quartet, “m”=multiplet, or “brs”=broad singlet. Italicized elements are those that are responsible for the shifts. High-resolution electrospray ionization mass spectra (HRESIMS) were obtained on an electrospray time-of-flight high-resolution Waters Micromass LCT Premier XE mass spectrometer. Cyclic voltammetric analyses were performed using a WaveNow USB potentiostat (Pine Research Instrumentation). A standard three-electrode cell was used with a glassy-carbon working electrode, a Pt-wire auxiliary electrode, and a Ag/AgCl reference electrode (1.0 M KCl). All electrochemical experiments were performed under an Ar atmosphere at ambient temperature with Et4NClO4 (0.05 M) as the supporting electrolyte, an aqueous solution of 3-(N-morpholino)propanesulfonic acid (MOPS, 0.01 M, pH 7.5) as the solvent, and the ferrocene/ferrocinium (Fc/Fc+) redox couple as an internal standard. From the initial potential of the analysis (−1.5 V), the voltage was ramped to 0.75 V and back to −1.5 V at a scan rate of 150 mV/s. […] After each measurement, ferrocene (6.7 mM in acetonitrile) was added to the sample (0.13 mM ferrocene after addition) and the measurement was repeated to enable referencing to Fc/Fc+.
To an aqueous solution of 3-(N-morpholino)propanesulfonic acid (MOPS) (0.01 M, pH 7.5), Et4NClO4 (0.05 M), and Eu(NO3)3.5H2O (1.1 mM, 1 equiv) was added a solution of the desired cryptand (12 mM, 1.2 equiv) in acetonitrile, and the resulting mixture was sparged with Ar for 5 minutes. The potential of the resulting solution was held at −0.8 V (30 minutes per 0.01 mmol of Eu(NO3)3.5H2O) while stirring under constant sparging with Ar. Immediately after holding the potential at −0.8 V, cyclic voltammograms were obtained in the potential range of −1.5 to 0.75 V at a scan rate of 150 mV/s. After acquiring the voltammogram, ferrocene (6.7 mM in acetonitrile, 0.1 equiv) was added, and another cyclic voltammogram was obtained. These cyclic voltammetric experiments were repeated 3-6 times for each ligand.

For `Fc1ccc2c(c1)OCCN1CCOCCOCCN(CCOCCOCC1)CCO2` [4-Eu], the “Oxidative stability compared to hemoglobin (in words)” value (Fe(II) in hemoglobin, p=0.64, p=0.45) was “statistically identical; also recorded: not different” and the “Anodic peak potentials (Epa) with respect to ferrocene/ferrocenium (Fc/Fc+)” value was −0.079 ± 0.007 V vs, Fc/Fc^+.
In the case of `c1ccc2c(c1)OCCN1CCSCCSCCN(CCO2)CCSCCSCC1` [6-Eu], the “Anodic peak potentials (Epa) with respect to ferrocene/ferrocenium (Fc/Fc+)” value is reported as −0.035 ± 0.010 V vs, Fc/Fc^+.
With `O=[N+]([O-])[O-].O=[N+]([O-])[O-].O=[N+]([O-])[O-].[Eu+3]` [Eu(NO3)3, reference compound] the “Anodic peak potentials (Epa) with respect to ferrocene/ferrocenium (Fc/Fc+)” value was −0.701 ± 0.030 V vs, Fc/Fc^+.
For `CC1(C)OCCN2CCOCCOCCN(CCOC1(C)C)CCOC(C)(C)C(C)(C)OCC2` [cryptand 2, 5,5,6,6,14,14,15,15-Octamethyl-4,7,13,16,21,24-hexaoxa-1,10-diazabicyclo[8.8.8]hexacosane], the “Oxidative stability compared to unmodified cryptand 1 (in words)” value (cyclic voltammetric data of Eu-containing solutions) was “increased oxidative stability”.
For `Fc1ccc2c(c1)OCCN1CCOCCOCCN(CCOCCOCC1)CCO2` [cryptand 4, 5,6-(4-Fluorobenzo)-4,7,13,16,21,24-hexaoxa-1,10-diazabicyclo[8.8.8]hexacos-5-ene], the “Increase in oxidative stability of Eu(II) compared to cryptand 3” value was 133 mV and 129 mV.
In the case of `c1ccc2c(c1)OCCN1CCOCCOCCN(CCO2)CCOc2ccccc2OCC1` [cryptand 5, 5,6,14,15-Dibenzo-4,7,13,16,21,24-hexaoxa-1,10-diazabicyclo[8.8.8]hexacosane], the “Anodic peak potential compared to mono-phenyl substituted cryptand 3 (in words)” value (p=0.76) is reported as “no significant difference”.
With `c1ccc2c(c1)OCCN1CCSCCSCCN(CCO2)CCSCCSCC1` [cryptand 6, 5,6-Benzo-4,7-dioxa-13,16,21,24-tetrathia-1,10-diazabicyclo[8.8.8]hexacos-5-ene] the “Oxidative potential more positive than hemoglobin (Fe^2+/3+)” value (cryptand with Eu(II)) was 35 mV, the “Oxidative potential more positive than the Eu aqua ion” value (cryptand with Eu(II)) was 666 mV and the “Increase in oxidative stability of Eu(II) compared to cryptand 3” value was 173 mV.
With “hemoglobin: Human hemoglobin from RayBiotech Inc.; Fe(II) oxidation used as biological comparison [reference compound]” the “Anodic peak potentials (Epa) with respect to ferrocene/ferrocenium (Fc/Fc+)” value was −0.070 ± 0.003 V vs, Fc/Fc^+.
